pKi: −log10 of the molar value.
Experiments:
[1] = tested on: CD-1 mice; assay: Formalin test in mice; assay type: in vivo; conditions: AM251 0.5 mg/kg i.p. or AM630 1 mg/kg i.p., 10 min before Δ^9-THCB 3 mg/kg i.p.
Procedure: Formalin test in mice. Male CD-1 mice 6-8 weeks (Envigo, Italy), were housed under controlled conditions (12 h light/12 h dark cycle; temperature 20-22 C; humidity 55-60%) with chow and tap water available ad libitum. All surgeries and experimental procedures were approved by the Animal Ethics Committee of University of Campania “L. Vanvitelli” (Naples). Animal care was in compliance with Italian (D.L. 116/92) and European Commission (O.J. of E.C. L358/1 18/12/86) regulations on the protection of laboratory animals. All efforts were made to minimize animal suffering and to reduce the number of animals used. All the experiments were performed in a randomized manner by the same operator blind to pharmacological treatments. Mice weighing 28-32 g were used after 1 week-acclimation period and received formalin (1.25% in saline, 30 μL) in the dorsal surface of one side of the hind-paw. Each mouse, randomly assigned to one of the experimental groups (n=5), was placed in a plexiglass cage and allowed to move freely for 15-20 min. A mirror was placed at a 45° angle under the cage to allow full view of the hind-paws. Lifting, favoring, licking, shaking and flinching of the injected paw were recorded as nocifensive behavior.^61 The total time of the nociceptive response was measured every 5 min for 60 minutes and expressed in min (mean±SEM). Mice received vehicle (0.5% DMSO in saline) or different doses of Δ^9-THCB (2, 3 and 5 mg/kg, i.p.) 20 min before formalin injection alone or in combination with AM251 (0.5 mg/kg, i.p.) or AM630 (1 mg/kg, i.p.). The antagonists were administered 10 min before drugs injection.
Statistics for in vivo experiments. Data are represented as means±standard error of the mean (S.E.M). Statistical analysis of the data was performed by analysis of variance two-way ANOVA followed by Bonferroni post hoc or Dunnett's multiple comparison test. All statistical analyses were performed by using GraphPAD software (San Diego, California). Differences were considered significant at p<0.05.

[2] = molecular target: T1, human CB1 receptor (Homo sapiens, UniProt P21554); conditions: literature values used for comparison; read-out: Ki against CB1 receptor reported in the literature; cited from earlier work
T1 construct: Eurofins Discovery (contract assay)

[3] = molecular target: T2, human CB2 receptor (Homo sapiens, UniProt P34972); conditions: cited from earlier work
T2 construct: Eurofins Discovery (contract assay)
T2 sequence (P34972 whole entry): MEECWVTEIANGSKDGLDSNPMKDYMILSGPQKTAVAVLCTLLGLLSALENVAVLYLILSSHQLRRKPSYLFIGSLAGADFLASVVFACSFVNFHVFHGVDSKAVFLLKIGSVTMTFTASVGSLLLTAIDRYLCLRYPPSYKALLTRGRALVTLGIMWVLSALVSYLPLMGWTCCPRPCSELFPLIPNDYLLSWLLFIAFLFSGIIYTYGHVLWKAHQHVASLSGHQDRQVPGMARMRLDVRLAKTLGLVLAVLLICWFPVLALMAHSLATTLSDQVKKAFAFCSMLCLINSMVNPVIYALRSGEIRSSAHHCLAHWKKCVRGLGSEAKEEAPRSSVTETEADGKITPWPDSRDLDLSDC

T1 sequence (P21554 whole entry): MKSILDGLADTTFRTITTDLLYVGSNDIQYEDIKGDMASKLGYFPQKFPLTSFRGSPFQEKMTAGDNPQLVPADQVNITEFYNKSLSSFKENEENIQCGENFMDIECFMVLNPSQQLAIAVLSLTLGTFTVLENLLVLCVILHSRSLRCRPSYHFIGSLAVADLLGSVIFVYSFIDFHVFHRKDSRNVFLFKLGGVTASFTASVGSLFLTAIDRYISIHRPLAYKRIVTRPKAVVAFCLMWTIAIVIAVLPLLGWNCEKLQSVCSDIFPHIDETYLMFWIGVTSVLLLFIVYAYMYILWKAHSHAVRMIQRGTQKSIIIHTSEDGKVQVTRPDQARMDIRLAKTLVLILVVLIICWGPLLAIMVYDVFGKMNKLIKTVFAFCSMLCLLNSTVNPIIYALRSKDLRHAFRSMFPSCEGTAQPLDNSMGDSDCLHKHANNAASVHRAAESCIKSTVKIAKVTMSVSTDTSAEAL

| SMILES | effect of antagonist pre-treatment on Δ^9-THCB analgesia in formalin test [1] | pKi [2] | other results |
| --- | --- | --- | --- |
| COc1ccc(C(=O)c2c(C)n(CCN3CCOCC3)c3cc(I)ccc23)cc1 [AM630] | prevented the analgesic effects induced by Δ^9-THCB | – | – |
| CCCc1cc(O)c2c(c1)OC(C)(C)[C@@H]1CCC(C)=C[C@@H]21 [Δ^9-THCV, Δ^9-tetrahydrocannabivarin] | – | 7.12 | – |
| CC1=CC[C@@H]2[C@@H](C1)c1c(O)cc(C(C)(C)CCCCCCBr)cc1OC2(C)C [AM11542] | – | 9.96 | – |
| C=C(C)[C@@H]1CCC(C)=C[C@H]1c1c(O)cc(CCCCC)cc1O [CBD, cannabidiol] | – | – | affinity to CB2 receptor (in words, literature) [3]: poor affinity |
| Cc1c(C(=O)NN2CCCCC2)nn(-c2ccc(Cl)cc2Cl)c1-c1ccc(I)cc1 [AM251] | prevented the analgesic effects induced by Δ^9-THCB | – | – |
